{"source": "patent US9695155B2", "about": "“Herbicidal substituted pyrimidinyloxy benzene compounds” (E. I. DU PONT DE NEMOURS AND COMPANY, priority 2013, dated 2017)", "key": {"[1]": {"system": "pigweed", "assay": "Test A postemergence", "assay_type": "in vivo, Amaranthus retroflexus", "settings": "0 to 100 scale where 0 is no effect and 100 is complete control", "summary_of_the_method": "(§1)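 Injury scores run from 0, no effect, to 100, complete control, judged by eye against untreated plants roughly 10 days after treatment. Chemicals carried a surfactant in a non-phytotoxic solvent and went onto loam–sand soil preemergence or onto one- to two-leaf seedlings postemergence.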"}, "[2]": {"system": "corn", "assay": "Test C postemergence", "assay_type": "in vivo, Zea mays", "summary_of_the_method": "(§2)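 Rated visually on 0–100 (100 = complete control) after 13–15 days under glass. Treatments went onto freshly seeded loam/sand soil or onto emerged plants at the 1- to 4-leaf stage, using a surfactant-containing solvent formulation.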"}, "[3]": {"system": "morningglory", "assay": "Test C preemergence", "assay_type": "in vivo, Ipomoea coccinea", "settings": "preemergence", "summary_of_the_method": "as §2"}, "[4]": {"system": "chickweed", "assay": "Test C postemergence", "assay_type": "in vivo, Stellaria media", "summary_of_the_method": "as §2"}, "[5]": {"system": "velvetleaf", "assay": "Test C preemergence", "assay_type": "in vivo, Abutilon theophrasti", "settings": "preemergence", "summary_of_the_method": "as §2"}, "[6]": {"system": "large (Lg) crabgrass", "assay": "Test A preemergence", "assay_type": "in vivo, Digitaria sanguinalis", "settings": "0 to 100 scale where 0 is no effect and 100 is complete control", "summary_of_the_method": "as §1"}, "[7]": {"system": "galium", "assay": "Test C preemergence", "assay_type": "in vivo, Galium aparine", "settings": "for Galium plant response rating: preemergence", "summary_of_the_method": "as §2"}, "[8]": {"system": "velvetleaf", "assay": "Test A preemergence", "assay_type": "in vivo, Abutilon theophrasti", "summary_of_the_method": "as §1"}, "[9]": {"system": "wheat, winter", "assay": "Test C postemergence", "assay_type": "in vivo, Triticum aestivum", "summary_of_the_method": "as §2"}, "[10]": {"system": "large (Lg) crabgrass", "assay": "Test C postemergence", "assay_type": "in vivo, Digitaria sanguinalis", "summary_of_the_method": "as §2"}, "[11]": {"system": "Heteranthera limosa", "assay": "Test B flooded paddy test", "assay_type": "in vivo", "settings": "Flood, 250 g ai/ha; 0 to 100 scale where 0 is no effect and 100 is complete control", "summary_of_the_method": "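Post-emergence paddy-water application at the 2-leaf stage, with 3 cm flood kept for the whole test. Response was judged visually relative to controls after 13 to 15 greenhouse days, 0 indicating no effect and 100 complete control.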"}, "[12]": {"system": "oilseed rape", "assay": "Test C preemergence", "assay_type": "in vivo, Brassica napus", "settings": "preemergence", "summary_of_the_method": "as §2"}, "[13]": {"system": "johnsongrass", "assay": "Test C preemergence", "assay_type": "in vivo, Sorghum halepense", "settings": "preemergence", "summary_of_the_method": "as §2"}, "[14]": {"system": "giant foxtail", "assay": "Test A preemergence", "assay_type": "in vivo, Setaria faberii", "settings": "0 to 100 scale where 0 is no effect and 100 is complete control", "summary_of_the_method": "as §1"}, "[15]": {"system": "Italian ryegrass", "assay": "Test C preemergence", "assay_type": "in vivo, Lolium multiflorum", "settings": "preemergence", "summary_of_the_method": "as §2"}, "[16]": {"settings": "16 g ai/ha, postemergence, 0 is no effect, 100 is complete control"}, "[17]": {"settings": "31 g ai/ha, postemergence, visual rating, scale 0 to 100 (0 no effect, 100 complete control), 13 to 15 days"}, "[18]": {"settings": "125 g ai/ha, postemergence, visual rating, scale 0 to 100 (0 no effect, 100 complete control)"}, "[19]": {"settings": "Postemergence, 62 g ai/ha, scale 0 to 100 (0 no effect, 100 complete control)"}, "[20]": {"settings": "16 g ai/ha, scale 0 to 100 (0 no effect, 100 complete control)"}, "[21]": {"settings": "62 g ai/ha, scale 0 (no effect) to 100 (complete control)"}, "[22]": {"settings": "125 g ai/ha, scale 0 (no effect) to 100 (complete control)"}}, "data": [{"smiles": "FC(F)(F)c1cnn(-c2c(Cl)cccc2Oc2ncc(Cl)cn2)c1", "note": "[Compound 167]", "values": [{"measurement": "Pigweed plant response rating", "setting": "[1]; 125 g ai/ha", "result": 100}, {"measurement": "Plant response rating, Pigweed", "setting": "[1]; 500 g ai/ha", "result": 100}, {"measurement": "Plant response rating (0 to 100), Corn", "setting": "[2]; [16]", "result": 5}, {"measurement": "Corn plant response rating", "setting": "[2]; [17]", "result": 5}, {"measurement": "Plant response rating, Corn", "setting": "[2]; [18]", "result": 15}, {"measurement": "Plant response rating, Corn", "setting": "[2]; [19]", "result": 10}, {"measurement": "Morningglory plant response rating", "setting": "[3]; [20]", "result": 30}, {"measurement": "Morningglory plant response rating", "setting": "[3]; [21]", "result": 50}, {"measurement": "Morningglory plant response rating", "setting": "[3]; [22]", "result": 100}, {"measurement": "Plant response rating (0 to 100), Chickweed", "setting": "[4]; [16]", "result": 55}, {"measurement": "Chickweed plant response rating", "setting": "[4]; [17]", "result": 80}, {"measurement": "Plant response rating, Chickweed", "setting": "[4]; [18]", "result": 80}, {"measurement": "Plant response rating, Chickweed", "setting": "[4]; [19]", "result": 70}, {"measurement": "Velvetleaf plant response rating", "setting": "[5]; [20]", "result": 45}, {"measurement": "Velvetleaf plant response rating", "setting": "[5]; [21]", "result": 100}, {"measurement": "Velvetleaf plant response rating", "setting": "[5]; [22]", "result": 100}, {"measurement": "Plant response rating, Crabgrass, Large", "setting": "[6]; 125 g ai/ha", "result": 100}, {"measurement": "Crabgrass, Large plant response rating", "setting": "[6]; 500 g ai/ha", "result": 100}, {"measurement": "Galium plant response rating", "setting": "[7]; [20]", "result": 98}, {"measurement": "Galium plant response rating", "setting": "[7]; [21]", "result": 100}, {"measurement": "Galium plant response rating", "setting": "[7]; [22]", "result": 100}, {"measurement": "Plant response rating, Galium", "setting": "[7]; Preemergence, 31 g ai/ha, scale 0 to 100, 0 no effect, 100 complete control", "result": 100}, {"measurement": "Velvetleaf plant response rating (0 to 100 scale)", "setting": "[8]; 125 g ai/ha", "result": 80}, {"measurement": "Velvetleaf plant response rating", "setting": "[8]; 500 g ai/ha, 0 to 100 scale where 0 is no effect and 100 is complete control", "result": 100}, {"measurement": "Plant response rating (0 to 100), Wheat", "setting": "[9]; [16]", "result": 0}, {"measurement": "Wheat plant response rating", "setting": "[9]; [17]", "result": 0}, {"measurement": "Plant response rating, Wheat", "setting": "[9]; [18]", "result": 5}, {"measurement": "Plant response rating, Wheat", "setting": "[9]; [19]", "result": 5}, {"measurement": "Plant response rating (0 to 100), Crabgrass, Large", "setting": "[10]; [16]", "result": 5}, {"measurement": "Crabgrass, Large plant response rating", "setting": "[10]; [17]", "result": 5}, {"measurement": "Plant response rating, Crabgrass, Large", "setting": "[10]; [18]", "result": 10}, {"measurement": "Plant response rating, Crabgrass, Large", "setting": "[10]; [19]", "result": 5}, {"measurement": "Plant response rating, Ducksalad", "setting": "[11]", "result": 100}, {"measurement": "Oilseed Rape plant response rating", "setting": "[12]; [20]", "result": 80}, {"measurement": "Oilseed Rape plant response rating", "setting": "[12]; [21]", "result": 90}, {"measurement": "Oilseed Rape plant response rating", "setting": "[12]; [22]", "result": 98}, {"measurement": "Johnsongrass plant response rating", "setting": "[13]; [20]", "result": 5}, {"measurement": "Johnsongrass plant response rating", "setting": "[13]; [21]", "result": 80}, {"measurement": "Johnsongrass plant response rating", "setting": "[13]; [22]", "result": 95}, {"measurement": "Plant response rating, Foxtail, Giant", "setting": "[14]; 125 g ai/ha", "result": 100}, {"measurement": "Foxtail, Giant plant response rating", "setting": "[14]; 500 g ai/ha", "result": 100}, {"measurement": "Ryegrass, Italian plant response rating", "setting": "[15]; [20]", "result": 5}, {"measurement": "Ryegrass, Italian plant response rating", "setting": "[15]; [21]", "result": 80}, {"measurement": "Ryegrass, Italian plant response rating", "setting": "[15]; [22]", "result": 90}]}]}
